{
  "source": "patent US11479533B2",
  "about": "“Inhibitors of Rho associated coiled-coil containing protein kinase” (KADMON CORPORATION, LLC, priority 2017, dated 2022)",
  "key": {"[1]": {"system": "human oligodendrocyte/neuron progenitor cells", "test": "Aβ 1-42 induced cell death assay on human oligodendrocyte/neuron progenitors", "assay_type": "cell-based", "conditions": "3 μM, 10.5 μM Aβ1-42, 24 hour", "experimental": "Aβ 1-42 induced cell death assay on human oligodendrocyte/neuron progenitors in 96-well plate. Cells were seeded on poly-L-ornithine and laminin coated plates at a density of 8,000 cells per well and maintained in expansion media until Day 3, then media was replaced with fresh spontaneous differentiation media containing testing compounds and IncuCyte Annexin V Red Reagent (1:200 dilution) (Essen BioScience Cat. No. 4641). After the pre-incubation period of 30 minutes at 37° C., 10.5 μM Aβ 1-42 (Bachem Product No. H-8146) was added directly in the pretreatment solution. Neurite length and total Annexin V positive area were analyzed by IncuCyte S3 Live Cell Analysis System every 2 hours.\nIn addition to promoting neuroregeneration, ROCK inhibitors have been reported to exert neuroprotective effects and prolong neuronal survival. Here we test the neuroprotective effect of ROCK inhibitors against Aβ1-42. Human oligodendrocyte/neuron progenitor cells were pre-incubated with ROCK inhibitors for 30 minutes before exposing to 10.5 μM Aβ1-42. IncuCyte Annexin V Red Reagent was added to culture media to label cell apoptosis. Pictures were taken by IncuCyte S3 and total Annexin V positive area was analyzed by IncuCyte S3 base software. Neurite length was quantified by IncuCyte NeuroTrack Software Module, see FIGS. 3b and 3c."}, "[2]": {"system": "human oligodendrocyte/neuron progenitor cells", "test": "Chondroitin Sulfate Proteoglycan (CSPG) assay on human oligodendrocyte/neuron progenitors", "assay_type": "cell-based", "conditions": "1 μM and 3 μM, 72 hour", "experimental": "Chondroitin Sulfate Proteoglycan (CSPG) assay on human oligodendrocyte/neuron progenitors in 96-well plate. […] Cells were seeded on the coated plates at a density of 6,000 cells per well in expansion media. The following day the expansion media was replaced with fresh spontaneous differentiation media containing testing compounds. Cells were imaged and neurite length was analyzed by IncuCyte S3 Live Cell Analysis System every 4 hours."}, "[3]": {"target": "recombinant ROCK2 (amino acids 1-552) (Homo sapiens (Human), UniProt O75116)", "sequence (O75116 1-552)": "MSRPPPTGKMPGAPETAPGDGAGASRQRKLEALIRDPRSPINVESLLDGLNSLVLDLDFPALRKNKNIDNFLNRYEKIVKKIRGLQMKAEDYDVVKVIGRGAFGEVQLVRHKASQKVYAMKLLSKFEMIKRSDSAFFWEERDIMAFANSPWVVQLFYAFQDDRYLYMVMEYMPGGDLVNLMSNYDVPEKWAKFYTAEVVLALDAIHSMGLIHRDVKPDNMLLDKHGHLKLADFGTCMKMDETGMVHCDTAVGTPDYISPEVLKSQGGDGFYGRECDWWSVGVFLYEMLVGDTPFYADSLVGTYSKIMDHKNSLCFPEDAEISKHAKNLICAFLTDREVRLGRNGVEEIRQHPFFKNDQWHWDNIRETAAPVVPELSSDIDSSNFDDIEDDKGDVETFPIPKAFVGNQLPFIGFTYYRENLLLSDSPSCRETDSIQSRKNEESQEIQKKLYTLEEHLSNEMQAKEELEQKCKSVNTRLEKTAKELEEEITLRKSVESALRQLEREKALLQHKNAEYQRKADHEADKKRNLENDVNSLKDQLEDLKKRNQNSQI", "test": "Z'-lyte kinase assay, ROCK2", "assay_type": "biochemical", "method_in_brief": "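Inhibition of recombinant human ROCK2 (residues 1-552, sourced from ThermoFisher Scientific) was assessed in vitro with the Z'-lyte kinase kit. Kinase activity with compound was normalized to DMSO control to give percent inhibition. IC50s came from 9-point 2-fold serial dilutions fitted by nonlinear regression in GraphPad Prism.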"}, "[4]": {"system": "human oligodendrocyte/neuron progenitor cells", "test": "Neurite outgrowth and differentiation of human oligodendrocyte/neuron progenitors", "assay_type": "cell-based", "experimental": "Thawing and proliferation of human oligodendrocyte/neuron progenitor cells (OPCs). Cryopreserved human oligodendrocyte/neuron progenitors (Millipore Cat. No. CS204496) were recovered and cultured on maltrigel (BD Cat. No. 356324) coated T-25 flask in expansion media containing OPC/neuron basal medium, N21 medium supplement, recombinant human bFGF, PDGF-AA and NT-3. When cells reached 80% confluent, 3 ml of Accutase was applied (Millipore SCR005) to passage cells at 1:4 ratio. Sub-cultured cells were maintained in expansion media for proliferation.\nSpontaneous differentiation of human oligodendrocyte/neuron progenitors in 24-well and 96-well plates. Coat plate with 10 μg/ml poly-L-ornithine (Sigma Cat. No. P4957) overnight at room temperature. Remove the poly-L-ornithine solution and rinse the plate with 1×PBS, add 10 μg/ml laminin (Millipore Cat. No. CC095) and incubate at 37° C. for at least 2 hours. Seed cells on the coated plates in expansion media and allowed to attach overnight. The next day expansion media was removed and replaced with freshly prepared spontaneous differentiation media only containing OPC/neuron basal media and N21 media supplement. For 14 day culture, differentiation media was replaced every 3-4 days. Cells were imaged and neurite length was analyzed by IncuCyte S3 Live Cell Analysis System every 4 hours. After 14 days of differentiation, cells were fixed by 4% paraformaldehyde and stained with DAPI and Neuron-specific ß-III tubulin antibody (R&D systems, NL1195R)."}, "[5]": {"target": "recombinant ROCK1 (amino acids 1-535) (Homo sapiens (Human), UniProt Q13464)", "sequence (Q13464 1-535)": "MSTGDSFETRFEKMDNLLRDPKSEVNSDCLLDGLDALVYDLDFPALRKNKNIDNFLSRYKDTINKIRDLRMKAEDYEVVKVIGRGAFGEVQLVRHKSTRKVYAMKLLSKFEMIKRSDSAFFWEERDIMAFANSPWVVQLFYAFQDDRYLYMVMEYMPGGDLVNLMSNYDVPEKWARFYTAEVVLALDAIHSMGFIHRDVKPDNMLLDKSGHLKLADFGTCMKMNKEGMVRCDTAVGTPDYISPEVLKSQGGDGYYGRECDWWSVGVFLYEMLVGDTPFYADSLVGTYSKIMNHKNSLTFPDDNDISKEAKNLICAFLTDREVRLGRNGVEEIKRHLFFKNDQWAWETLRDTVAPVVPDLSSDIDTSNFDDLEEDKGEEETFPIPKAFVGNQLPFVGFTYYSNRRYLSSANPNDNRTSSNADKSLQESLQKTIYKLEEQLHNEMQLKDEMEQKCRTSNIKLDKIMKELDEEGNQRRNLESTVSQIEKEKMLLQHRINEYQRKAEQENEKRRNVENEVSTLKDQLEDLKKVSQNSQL", "test": "Z'-lyte kinase assay, ROCK1", "assay_type": "biochemical", "conditions": "@ 0.5 μM; read-out: ROCK1 % inh (0.5 μM)", "experimental": "Determination of compounds ROCK inhibitory activity in vitro (Z'lyte assay): recombinant ROCK1 (amino acids 1-535) and ROCK2 (amino acids 1-552) proteins were purchased from ThermoFisher Scientific. Compounds activities were measured by Z'-lyte kinase kit (ThermoFisher Scientific) and IC50s were calculated.\nCompounds activities were measured by Z'-lyte kinase kit (ThermoFisher Scientific). […] IC50s were calculated using the GraphPad Prism software with kinase activities data that were collected from 9 points serial dilution of compounds treatment. The ROCK inhibition in A7R5 cells and NIH3T3 (Acta2-Luc) cells was performed as described above.\nThe percent inhibition rate was calculated by normalizing the kinase activity value obtained with compound treatment against DMSO control value and then applied to the equation, […]. IC50's were calculated using the nonlinear regression curve fit function of the GraphPad Prism software with kinase activities data measured with 9 points 2-fold serial dilution of compounds treatment."}, "[6]": {"system": "ACTA2-promoter-driven-luciferase in NIH3T3 cells", "test": "NIH3T3 Acta2-promoter driven-luciferase assay", "assay_type": "cell-based", "conditions": "Mus musculus, plus TGFβ1, 24 hr, read-out: NIH3T3, Acta2-luc, IC50", "method_in_brief": "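Stable NIH3T3 line carrying luciferase reporter under human ACTA2 promoter (−1000-1 bp); confluent cells given 9-point compound dilutions with TGFβ1 for 24 hr. Lysed cells read for luciferase; IC50 from nonlinear regression fit.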"}, "[7]": {"system": "ppMlc (T18/S19) levels in A7R5 cells", "test": "A7R5 in-cell ELISA assay (ppMlc)", "assay_type": "cell-based, rat", "conditions": "Rattus norvegicus, A7R5, A7R5 cells, Table 2; read-out: pMLC IC50 (nM) A7R5", "method_in_brief": "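Rat aortic smooth muscle A7R5 cells in DMEM with 10% FBS, seeded 24 h, then treated 90 min with 9-point 2-fold compound dilutions. ppMlc (T18/S19) measured by colorimetric in-cell ELISA; cellular IC50 from nonlinear regression curve fit.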"}, "[8]": {"conditions": "cited from earlier work"}, "[9]": {"system": "sAPPβ", "conditions": "direct injection into hippocampus; cited from earlier work"}},
  "note": "pIC50: −log10 of the molar value.",
  "data": [
    {"smiles": "CNC(C(=O)Nc1ccc(-c2cn[nH]c2)cc1)c1ccc(Cl)cc1", "note": "(centres unmarked) [Example 17, N-(4-(1H-pyrazol-4-yl)phenyl)-2-(4-chlorophenyl)-2-(methylamino)acetamide]", "values": [
      {"measurement": "Aβ1-42 induced cell death (Annexin V area)", "setting": "[1]", "value": "significantly protect"},
      {"measurement": "neurite outgrowth in the presence of Aβ1-42", "setting": "[1]", "value": "promoted neurite outgrowth"},
      {"measurement": "CSPG mediated neurite outgrowth arrest", "setting": "[2]", "value": "significantly counteract"},
      {"measurement": "pIC50", "setting": "[3]", "value": 8.20},
      {"measurement": "inhibition at 0.5 µM", "setting": "[3]; @ 0.5 μM, read-out: ROCK2 % inh (0.5 μM)", "value": 98, "unit": "%"},
      {"measurement": "neuronal differentiation and maturation", "setting": "[4]; 14 days culture, Beta III tubulin", "value": "facility neuronal differentiation and maturation"},
      {"measurement": "neurite length", "setting": "[4]; various concentrations, 3 days culture", "value": "significantly increase neurite length"},
      {"measurement": "inhibition at 0.5 µM", "setting": "[5]", "value": 99, "unit": "%"},
      {"measurement": "pIC50", "setting": "[6]", "value": 6.97},
      {"measurement": "IC50", "setting": "[7]", "value": 60, "unit": "nM"}
    ]},
    {"smiles": "CN(C)CCOc1cc(-c2cn[nH]c2)ccc1NC(=O)C1COc2ccccc2O1", "note": "(centres unmarked) [SR3677]", "values": [
      {"measurement": "brain penetration", "setting": "[8]; in vivo", "value": "lack of brain penetration"},
      {"measurement": "half-life", "setting": "[8]; oral PK", "value": "< 1", "unit": "h"},
      {"measurement": "oral bioavailability (F)", "setting": "[8]; oral", "value": 5, "unit": "%"},
      {"measurement": "sAPPβ", "setting": "[9]", "value": "lowering sAPPβ"}
    ]}
  ]
}
